In patent publication US9770452B2, “Quinoxaline derivatives as GPR6 modulators” (Takeda Pharmaceutical Company Limited, priority 2012, dated 2017):
pIC50: −log10 of the molar value. Structures can show the parent of a compound that is named as a salt.

Target: T1, GPR6 receptor (Homo sapiens, UniProt P46095)
T1 construct: expressed in transfected cells
Assay: Inhibition of cAMP Activity of GPR6 In Vitro Assay (CHO-K1 cells, HTRF cAMP)
Assay type: cell-based
Conditions: compounds of Compound Table 1; inhibition of constitutive cAMP activity of GPR6 expressed in CHO-K1 cells; approximate IC50; read-out: IC50
Method in brief: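 CHO-K1 cells with doxycycline-induced (1 μg/ml, 20 h) GPR6 treated with compounds 45 min at 37 °C in Ringer's buffer (pH 7.4) with 0.5% fatty acid free BSA. Constitutive cAMP measured by Lance HTRF Ultra cAMP; IC50 from four-parameter logistic fit.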

T1 sequence (P46095 whole entry): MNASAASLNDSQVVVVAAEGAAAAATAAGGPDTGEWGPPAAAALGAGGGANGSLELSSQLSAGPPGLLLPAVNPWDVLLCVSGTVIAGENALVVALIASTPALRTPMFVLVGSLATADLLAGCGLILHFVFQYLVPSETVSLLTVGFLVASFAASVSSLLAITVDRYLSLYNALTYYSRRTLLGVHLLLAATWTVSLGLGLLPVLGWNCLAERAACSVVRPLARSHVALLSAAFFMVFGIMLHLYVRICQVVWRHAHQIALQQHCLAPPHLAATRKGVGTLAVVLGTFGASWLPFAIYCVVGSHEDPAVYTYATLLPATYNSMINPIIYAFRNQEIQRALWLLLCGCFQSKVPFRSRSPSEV

Row | SMILES | pIC50
1 | N#Cc1ccc(Nc2nc3ccccc3nc2N2CCN(Cc3cc(Cl)ccc3Cl)CC2)cc1 [Cpd 58, 4-((3-(4-(2,5-dichlorobenzyl)piperazin-1-yl)quinoxalin-2-yl)amino)benzonitrile] | 5.26
2 | N#Cc1ccc(C(=O)N2CCN(c3nc4ccccc4nc3NC3CC3)CC2)cc1 [Cpd 75, 4-(4-(3-(cyclopropylamino)quinoxalin-2-yl)piperazine-1-carbonyl)benzonitrile, 2,2,2-trifluoroacetic acid salt] | 4.66
3 | COc1ccc(Br)c(C(=O)N2CCN(c3nc4ccccc4nc3NC3CC3)CC2)c1 [Cpd 85, (2-bromo-5-methoxyphenyl)(4-(3-(cyclopropylamino)quinoxalin-2-yl)piperazin-1-yl)methanone, 2,2,2-trifluoroacetic acid salt] | 5.12
4 | N#Cc1cccc(CN2CCN(c3nc4ccccc4nc3NC3CC3)CC2)c1 [Cpd 95, 3-((4-(3-(cyclopropylamino)quinoxalin-2-yl)piperazin-1-yl)methyl)benzonitrile, 2,2,2-trifluoroacetic acid salt] | 4.65
5 | Clc1cc(CN2CCN(c3nc4ccccc4nc3NC3CC3)CC2)c(Cl)s1 [Cpd 99, N-cyclopropyl-3-(4-((2,5-dichlorothiophen-3-yl)methyl)piperazin-1-yl)quinoxalin-2-amine, 2,2,2-trifluoroacetic acid salt] | 5.22
6 | Cc1cc(C)c2nc(N3CCN(Cc4cc(Cl)ccc4Cl)CC3)c(NC3CC3)nc2c1 [Cpd 103, N-cyclopropyl-3-(4-(2,5-dichlorobenzyl)piperazin-1-yl)-5,7-dimethylquinoxalin-2-amine] | 5.27
7 | O=S(=O)(c1ccccc1)N1CCN(c2nc3ccccc3nc2NC2CC2)CC1 [Cpd 105, N-cyclopropyl-3-(4-(phenylsulfonyl)piperazin-1-yl)quinoxalin-2-amine] | 5.25
8 | CC(C)CNc1nc2ccccc2nc1N1CCN(Cc2cc(Cl)ccc2Cl)CC1 [Cpd 110, 3-(4-(2,5-dichlorobenzyl)piperazin-1-yl)-N-isobutylquinoxalin-2-amine, 2,2,2-trifluoroacetic acid salt] | 5.22
9 | Cc1cc(Br)ccc1C(=O)N1CCN(c2nc3ccccc3nc2NC2CC2)CC1 [Cpd 122, (4-bromo-2-methylphenyl)(4-(3-(cyclopropylamino)quinoxalin-2-yl)piperazin-1-yl)methanone, 2,2,2-trifluoroacetic acid salt] | 4.99
10 | Clc1cccc(CN2CCN(c3nc4ccccc4nc3Nc3ncccn3)CC2)c1 [Cpd 126, 3-(4-(3-chlorobenzyl)piperazin-1-yl)-N-(pyrimidin-2-yl)quinoxalin-2-amine, 2,2,2-trifluoroacetic acid salt] | 4.33
11 | Clc1ccc(NC2CCN(c3nc4ccccc4nc3NC3CC3)CC2)cc1 [Cpd 413, 3-(4-((4-chlorophenyl)amino)piperidin-1-yl)-N-cyclopropylquinoxalin-2-amine, 22,2,2-trifluoroacetic acid salt] | 7.72
12 | O=C(c1ccsc1Cl)C1CCN(c2nc3cnccc3nc2NC2CC2)CC1 [Cpd 572, (2-chlorothiophen-3-yl)(1-(2-(cyclopropylamino)pyrido[3,4-b]pyrazin-3-yl)piperidin-4-yl)methanone, hydrogen chloride salt] | 7.68

The next lines start with the values.

Row | pIC50 | SMILES
13 | 5.50 | Clc1ccc(Cl)c(CN2CCN(c3nc4ccccc4nc3NCC3CC3)CC2)c1 [Cpd 42, N-(cyclopropylmethyl)-3-(4-(2,5-dichlorobenzyl)piperazin-1-yl)quinoxalin-2-amine, 2,2,2-trifluoroacetic acid salt]
14 | 5.63 | Clc1ccc(Cl)c(CN2CCN(c3nc4ccc(Br)cc4nc3NC3CC3)CC2)c1 [Cpd 45, 7-bromo-N-cyclopropyl-3-(4-(2,5-dichlorobenzyl)piperazin-1-yl)quinoxalin-2-amine, 2,2,2-trifluoroacetic acid salt]
15 | 5.32 | Clc1ccc(Cl)c(CN2CCN(c3nc4cc(Br)ccc4nc3NC3CC3)CC2)c1 [Cpd 46, 6-bromo-N-cyclopropyl-3-(4-(2,5-dichlorobenzyl)piperazin-1-yl)quinoxalin-2-amine, 2,2,2-trifluoroacetic acid salt]
16 | 5.95 | Clc1ccc(Cl)c(CN2CCN(c3nc4ncccc4nc3NC3CC3)CC2)c1 [Cpd 63, N-cyclopropyl-3-(4-(2,5-dichlorobenzyl)piperazin-1-yl)pyrido[2,3-b]pyrazin-2-amine]
17 | 5.71 | COCCCNc1nc2ccccc2nc1N1CCN(Cc2cc(Cl)ccc2Cl)CC1 [Cpd 66, 3-(4-(2,5-dichlorobenzyl)piperazin-1-yl)-N-(3-methoxypropyl)quinoxalin-2-amine]
18 | 5.99 | CS(=O)(=O)c1ccc(C(=O)N2CCN(c3nc4ccccc4nc3NC3CC3)CC2)c(Cl)c1 [Cpd 67, (2-chloro-4-(methylsulfonyl)phenyl)(4-(3-(cyclopropylamino)quinoxalin-2-yl)piperazin-1-yl)methanone]
19 | 5.34 | Fc1ccc(F)c(CN2CCN(c3nc4ccccc4nc3NC3CC3)CC2)c1 [Cpd 81, N-cyclopropyl-3-(4-(2,5-difluorobenzyl)piperazin-1-yl)quinoxalin-2-amine, 2,2,2-trifluoroacetic acid salt]
20 | 5.32 | O=C(c1ccc(F)c(Br)c1)N1CCN(c2nc3ccccc3nc2NC2CC2)CC1 [Cpd 89, (3-bromo-4-fluorophenyl)(4-(3-(cyclopropylamino)quinoxalin-2-yl)piperazin-1-yl)methanone, 2,2,2-trifluoroacetic acid salt]
21 | 5.49 | Cc1cc(C(=O)N2CCN(c3nc4ccccc4nc3NC3CC3)CC2)no1 [Cpd 98, (4-(3-(cyclopropylamino)quinoxalin-2-yl)piperazin-1-yl)(5-methylisoxazol-3-yl)methanone]
22 | 5.40 | c1ccc2nc(N3CCN(Cc4coc5ccccc45)CC3)c(NC3CC3)nc2c1 [Cpd 100, 3-(4-(benzofuran-3-ylmethyl)piperazin-1-yl)-N-cyclopropylquinoxalin-2-amine]
23 | 5.48 | CC(C)Nc1nc2ccccc2nc1N1CCN(Cc2cc(Cl)ccc2Cl)CC1 [Cpd 111, 3-(4-(2,5-dichlorobenzyl)piperazin-1-yl)-N-isopropylquinoxalin-2-amine, 2,2,2-trifluoroacetic acid salt]
24 | 5.40 | CC(C)CCNc1nc2ccccc2nc1N1CCN(Cc2cc(Cl)ccc2Cl)CC1 [Cpd 115, 3-(4-(2,5-dichlorobenzyl)piperazin-1-yl)-N-isopentylquinoxalin-2-amine, 2,2,2-trifluoroacetic acid salt]
25 | 7.12 | N#Cc1ccc2nc(NC3CC3)c(N3CCC(C(F)c4cc(F)ccc4F)CC3)nc2c1 (stereo not shown) [Cpd 471]
26 | 7.62 | N#Cc1ccc2nc(NC3CC3)c(N3CCC(C(F)c4ccc(F)cc4F)CC3)nc2c1 (stereo not shown) [Cpd 481]
27 | 7.66 | O=C(c1cc2nc(NC3CC3)c(N3CCC([C@H](F)c4ccc(F)cc4F)CC3)nc2cn1)N1CCC1 [Cpd 591, (S)-azetidin-1-yl(2-(cyclopropylamino)-3-(4-((2,4-difluorophenyl)fluoromethyl)piperidin-1-yl)pyrido[3,4-b]pyrazin-7-yl)methanone]
28 | 7.27 | COc1ccc(OC2CCN(c3nc4c(C(=O)N(C)C)nccc4nc3NC3CC3)CC2)c(F)c1 [Cpd 604, 2-(cyclopropylamino)-3-(4-(2-fluoro-4-methoxyphenoxy)piperidin-1-yl)-N,N-dimethylpyrido[3,4-b]pyrazine-5-carboxamide]
